Assay results reported in PubChem BioAssay (NCI).
Where “and” joins values, the source holds several entries; their conditions need not be identical. Equal entries are not always repeated.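 Briefly, cells in 96-well plates were exposed to five compound concentrations for 48 h, and endpoints were estimated by linear interpolation. Here, GI50 denotes the concentration required for 50% inhibition of growth. Definition used: TGI = concentration required for complete inhibition of growth.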

How the values were obtained:
Test in all cases: DTP human tumour cell line panel, 48 h
[1] = tested on: SNB-75 CNS
[2] = tested on: KM12 colon
[3] = tested on: HOP-92 NSCLC
[4] = tested on: UO-31 renal
[5] = tested on: HCT-15 colon
[6] = tested on: OVCAR-8 ovarian
[7] = tested on: SNB-19 CNS
[8] = tested on: RXF 393 renal
[9] = tested on: NCI-H23 lung
[10] = tested on: NCI-H226 lung

SMILES | TGI [1] [µM] | TGI [2] [µM] | TGI [3] [µM] | TGI [4] [µM] | TGI [5] [µM] | TGI [6] | TGI [7] [µM] | TGI [8] [µM] | TGI [9] | GI50 [10] [µM] | TGI [10] [µM] | GI50 [2] [µM] | GI50 [3] [µM] | GI50 [4] [µM] | GI50 [5] [µM] | GI50 [6] [µM] | GI50 [7] [µM] | GI50 [8] [µM] | GI50 [9] [µM] | GI50 [1] [µM]
COc1ccc(CCNCc2cccc(OC)c2OC)cc1OC | > 100 | > 100 | > 100 | > 100 | > 100 | > 100 µM | > 100 | > 100 | > 100 µM | – | – | – | – | – | – | – | – | – | – | –
C#CCOc1ccc2ncnc(Nc3ccc(NC(=O)CCl)cc3)c2c1 | – | 23.7 | 27.9 | 22.2 | 19.2 | 63.4 µM | 22.3 | 17.9 | 18.4 µM | 17.8 | 68.6 | 8.54 | 12.2 | 8.45 | 2.96 | 5.15 | 8.43 | 4.64 | 3.85 | –
C[C@H]1COC2(c3ccccc3)CCC(=O)N12 (stereo partly drawn) | > 100 | > 100 | > 100 | – | > 100 | > 100 µM | > 100 | > 100 | > 100 µM | – | – | – | – | – | – | – | – | – | – | –
O=C1OC(c2ccccc2)=N/C1=C\c1c(O)cc(O)cc1O | > 100 | > 100 | > 100 | > 100 | > 100 | > 100 µM | > 100 | > 100 | > 100 µM | – | – | – | – | – | – | – | – | – | – | –
Cc1[nH]nc2c1N=C(c1ccccc1F)c1cc(C#N)ccc1N2 | 0.717 | 6.48 | 8.87 | 4.01 | – | 12.3 µM | 13.9 | 1.99 | 14.2 µM | 0.322 | 4.11 | 0.111 | 0.672 | 0.435 | – | 3.38 | 4.16 | 0.105 | 3.74 | 0.036
COc1ccc2[nH]c(-c3cccc(N(C)C)c3)cc(=O)c2c1 | 50.2 | – | – | > 100 | – | 2.48 µM and 5.56 µM | – | 0.351 | – | 0.581 | – | 0.393 | 3.25 | 0.633 | 0.374 | 0.433 | – | – | 0.664 | 0.371
CC(=O)OCC(OC(C)=O)C(OC(C)=O)C(OC(C)=O)C(=O)CNn1c(-c2ccccc2)nc2ccc(Br)cc2c1=O (stereo not drawn) | > 100 | > 100 | – | > 100 | > 100 | > 100 µM | > 100 | > 100 | > 100 µM | – | > 100 | – | – | – | – | – | – | – | – | –
CC(C)CC(CNC(Cc1ccc(Cl)cc1)C(N)=O)NC(=O)C(Cc1cnc[nH]1)NC(=O)CNC(=O)C(NC(=O)C(C)NC(=O)C(Cc1c[nH]c2ccccc12)NC(=O)C(CCC(=O)O)NC(=O)C(N)Cc1ccccc1)C(C)C (stereo not drawn) | > 133 | > 133 | < 0.0133 | > 133 | > 133 | > 133 µM | > 133 | > 133 | > 133 µM | – | – | – | – | – | – | – | – | – | – | –
COc1ccc(NC(=O)Nc2ccc(Nc3nc(C)cc(Nc4ccc(C)cc4)n3)cc2)cc1 | 3 | – | 3.11 | 2.82 | 3.29 | – | 3.45 | 3.12 | – | – | – | – | 1.44 | 1.48 | 1.63 | – | 1.06 | 1.61 | – | 1.53
CCc1ccccc1-n1c2nc(=O)n(C)c(=O)c-2nc2ccccc21 | 28.8 | 34.2 | – | 48.2 | 23.4 | 21.6 µM | 23.5 | 30 | 18.2 µM | – | 36.4 | – | – | – | – | – | – | – | – | –
Cc1c2ncccc2nc2[nH]c3ccc(OCCN(C)C)cc3c12 | – | 13.6 | 9.59 | 11.5 | 16.3 | 16.5 µM | 26.7 | 9.92 | 21 µM | 5.05 | 21.5 | 1.93 | 1.99 | 1.84 | 1.33 | 1.49 | 2.8 | 2.89 | 2.54 | –
COc1ccc2c(c1OC)-c1c(c3ccc([N+](=O)[O-])cc3c(=O)n1CCCN=[N+]=[N-])C2=O | – | > 100 | > 100 | > 100 | > 100 | > 100 µM | > 100 | > 100 | > 100 µM | 22.8 | 99.3 | > 100 | 20.3 | 3.5 | > 100 | 21 | 3.62 | 10.1 | 17.5 | –
COc1cc2nc(-c3ccc(-n4cncc4-c4ccc(N)cc4)cc3)sc2c(OC)c1OC | 23.5 | – | 4.08 | 6.87 | – | 57.8 µM | 51.1 | 21.1 | 23.7 µM | 4.73 | 40.6 | – | 0.446 | 1.55 | – | 4.23 | 12.3 | 4.41 | 3.87 | 5.94
COc1cc(OC)c(OC)cc1/C=C1\C=Cc2ccccc21 | – | 41.8 | – | 64.2 | 61.4 | > 100 µM | – | 49.7 | > 100 µM | – | > 100 | – | – | – | – | – | – | – | – | –
CCOC(=O)C1=C(NC(C)(C)C)OCC1=O | > 100 | > 100 | > 100 | > 100 | > 100 | > 100 µM | > 100 | – | > 100 µM | – | > 100 | – | – | – | – | – | – | – | – | –
Cc1cccc2c1Oc1cc(Cl)ccc1C2NC(=O)CN(C)C (stereo not drawn) | 68.8 | – | – | > 100 | > 100 | > 100 µM | > 100 | 87.8 | > 100 µM | – | > 100 | – | – | – | – | – | – | – | – | –
CC[C@@H](C)[C@H]([C@H](CC(=O)N1CCC[C@@H]1[C@@H](OC)[C@H](C)C(=O)N[C@H](Cc1ccccc1)c1nccs1)OC)N(C)C(=O)[C@H](NC(=O)[C@@H](C(C)C)N(C)C)C(C)C | – | – | – | – | 0.0054 | – | 0.00744 | – | 0.00554 µM and < 0.215 µM | – | – | 0.000425 | 0.000425 | – | – | 0.000425 | – | 0.0179 | – | 0.000425
CN1CCN(Cc2ccc(NC(=O)c3[nH]ncc3Nc3ncnc4sccc34)cc2)CC1 | 2.3 | > 100 | – | 3.54 | > 100 | > 100 µM | > 100 | 0.535 | – | 0.169 | > 100 | 0.297 | – | 0.357 | 0.254 | 0.413 | 0.335 | 0.171 | – | 0.023
